Test results reported in patent US10681909B2, “Herbicidal triazoles” (FMC Corporation, priority 2014, dated 2020).

Key:
[1] = tested on: waterhemp; assay: Test C preemergence; type: in vivo, Amaranthus rudis; details: for Waterhemp plant response rating (0 to 100): Preemergence, visual rating after 13 to 15 d
Excerpt: (§1) Seeds of plant species selected from blackgrass (Alopecurus myosuroides), ryegrass, Italian (Italian ryegrass, Lolium multiflorum), wheat (winter wheat, Triticum aestivum), galium (catchweed bedstraw, Galium aparine), corn (Zea mays), crabgrass, large (large crabgrass, Digitaria sanguinalis), foxtail, giant, (giant foxtail, Setaria faberii), johnsongrass (Sorghum halepense), lambsquarters (Chenopodium album), morningglory (Ipomoea coccinea), nutsedge, yellow (yellow nutsedge, Cyperus esculentus), pigweed (Amaranthus retroflexus), ragweed (common ragweed, Ambrosia elatior), soybean (Glycine max), barnyardgrass (Echinochloa crus-galli), oilseed rape (Brassica napus), waterhemp (common waterhemp, Amaranthus rudis), and velvetleaf (Abutilon theophrasti) were planted into a blend of loam soil and sand and treated preemergence with test chemicals formulated in a non-phytotoxic solvent mixture which included a surfactant. At the same time, plants selected from these crop and weed species and also chickweed (common chickweed, Stellaria media), oat, wild (wild oat, Avena fatua), and kochia (Kochia scoparia), were planted in pots containing Sunshine Redi-Earth® planting medium comprising spaghnum peat moss, vermiculite, starter nutrients and dolomitic limestone and treated with postemergence applications of test chemicals formulated in the same manner. Plants ranged in height from 2 to 18 cm (1- to 4-leaf stage) for postemergence treatments. […] A dash (-) response means no test result.

[2] = tested on: nutsedge, yellow; assay: Test C preemergence; type: in vivo, Cyperus esculentus; details: for Plant response rating (scale of 0 to 100 where 0 is no effect and 100 is complete control): Nutsedge, Yellow, preemergence; for Nutsedge, Yellow plant response rating (0 to 100): Preemergence, visual rating after 13 to 15 d
Excerpt: as §1

[3] = tested on: pigweed; assay: Test C preemergence; type: in vivo, Amaranthus retroflexus; details: for Plant response rating (scale of 0 to 100 where 0 is no effect and 100 is complete control): Pigweed, preemergence; for Pigweed plant response rating (0 to 100): Preemergence, visual rating after 13 to 15 d
Excerpt: as §1

[4] = tested on: galium; assay: Test A postemergence; type: in vivo, Galium aparine; details: 0 to 100 scale (0 no effect, 100 complete control), approx. 10 d
Excerpt: Seeds of plant species selected from barnyardgrass (Echinochloa crus-galli), crabgrass, large (large crabgrass, Digitaria sanguinalis), kochia (Kochia scoparia), ragweed (common ragweed, Ambrosia elatior), foxtail, giant (giant foxtail, Setaria faberii), morningglory (Ipomoea spp.), pigweed (Amaranthus retroflexus), velvetleaf (Abutilon theophrasti), ryegrass, Italian (Italian ryegrass, Lolium multiflorum), wheat (Triticum aestivum), and corn (Zea mays) were planted into a blend of loam soil and sand and treated preemergence with a directed soil spray using test chemicals formulated in a non-phytotoxic solvent mixture which included a surfactant.
At the same time, plants selected from these crop and weed species and also blackgrass (Alopecurus myosuroides), and galium (catchweed bedstraw, Galium aparine), were planted in pots containing the same blend of loam soil and sand and treated with postemergence applications of test chemicals formulated in the same manner. Plants ranged in height from 2 to 10 cm and were in the one- to two-leaf stage for the postemergence treatment. Treated plants and untreated controls were maintained in a greenhouse for approximately 10 d, after which time all treated plants were compared to untreated controls and visually evaluated for injury. Plant response ratings, summarized in Table A, are based on a 0 to 100 scale where 0 is no effect and 100 is complete control. A dash (-) response means no test result.

COc1nc(-c2ccc(F)cc2)nn1Cc1ccnc(C(F)(F)F)c1 [Compound 9, 4-[[3-(4-fluorophenyl)-5-methoxy-1H-1,2,4-triazol-1-yl]methyl]-2-(trifluoromethyl)pyridine]
Waterhemp plant response rating (0 to 100) ([1]; 31 g ai/ha): 100
Waterhemp plant response rating (0 to 100) ([1]; 62 g ai/ha): 100
Plant response rating (scale of 0 to 100 where 0 is no effect and 100 is complete control) ([1]; Waterhemp, preemergence, 250 g ai/ha): 100
Plant response rating (scale of 0 to 100 where 0 is no effect and 100 is complete control) ([2]; 125 g ai/ha): 35
Plant response rating (scale of 0 to 100 where 0 is no effect and 100 is complete control) ([2]; 250 g ai/ha): 50
Nutsedge, Yellow plant response rating (0 to 100) ([2]; 31 g ai/ha): 10
Nutsedge, Yellow plant response rating (0 to 100) ([2]; 62 g ai/ha): 5
Plant response rating (scale of 0 to 100 where 0 is no effect and 100 is complete control) ([3]; 125 g ai/ha): 100
Plant response rating (scale of 0 to 100 where 0 is no effect and 100 is complete control) ([3]; 250 g ai/ha): 98
Pigweed plant response rating (0 to 100) ([3]; 31 g ai/ha): 100
Pigweed plant response rating (0 to 100) ([3]; 62 g ai/ha): 100

CCOc1nc(-c2ccc(Cl)cc2)nn1Cc1ccnc(C(F)(F)F)c1 [Compound 26]
Plant response rating, Galium ([4]; 31 g ai/ha): 60
Plant response rating, Galium ([4]; 125 g ai/ha): 90

CCCOc1nc(-c2ccccc2)nn1Cc1ccnc(C(F)(F)F)c1 [Compound 33]
Plant response rating, Galium ([4]; 125 g ai/ha): 70
Plant response rating, Galium ([4]; 500 g ai/ha): 80

COc1nc(-c2ccc(C(F)(F)F)cc2)nn1Cc1ccnc(C(F)(F)F)c1 [Compound 25]
Plant response rating, Galium ([4]; 31 g ai/ha): 60
Plant response rating, Galium ([4]; 125 g ai/ha): 80
